Source: patent publication US20030166653A1, “Novel form of (r)-n-[5-methyl-8-(4-methylpiperazin-1-yl)-1,2,3,4-tetrahydro-2-naphthyl]-4-morpholinobenzamide” (priority 2003, published 2003)
In brackets after ≈: the same amount, converted by molar mass.

Legend:
Format in all cases: physicochemical
[1] = Stability of solution in 0.1 mM HCl, pH 4.1, HPLC assay
Excerpt: (§1) The stability of [5-Methyl-8-(4-methylpiperazin-1-yl)-1,2,3,4-tetrahydro-2-naphtyl]-4-morpholinobenzamide(=“Base” in tables below) and (R)-N-[5-methyl-8-(4-methylpiperazin-1-yl)-1,2,3,4-tetrahydro-2-naphtyl]-4-morpholinobenzamide monohydrobromide Form A (=“Form A” in tables below), as bulk drug substance and in solutions at different pH levels after exposure to daylight and at elevated temperatures, has been studied. Three solutions were made from each batch of drug substance. One solution in pure water, one in 0.1 mM HCl (pH 4.1) and one in 0.1 M HCl (pH 1.1). The content of [5-Methyl-8-(4-methylpiperazin-1-yl)-1,2,3,4-tetrahydro-2-naphtyl]-4-morpholinobenzamide (=Base) was determined by HPLC, all results are calculated as the base.

[2] = Stability of bulk drug substance (HPLC purity) in daylight and at 90° C.; conditions: for HPLC Purity (100% - related substances): bulk
Protocol: The stability of [5-Methyl-8-(4-methylpiperazin-1-yl)-1,2,3,4-tetrahydro-2-naphtyl]-4-morpholinobenzamide(=“Base” in tables below) and (R)-N-[5-methyl-8-(4-methylpiperazin-1-yl)-1,2,3,4-tetrahydro-2-naphtyl]-4-morpholinobenzamide monohydrobromide Form A (=“Form A” in tables below), as bulk drug substance and in solutions at different pH levels after exposure to daylight and at elevated temperatures, has been studied. The bulk substances are very stable, both in daylight and at 90° C. There are no significant differences between the HPLC purity of [5-Methyl-8-(4-methylpiperazin-1-yl)-1,2,3,4-tetrahydro-2-naphtyl]-4-morpholinobenzamide (=Base) and (R)-N-[5-methyl-8-(4-methylpiperazin-1-yl)-1,2,3,4-tetrahydro-2-naphtyl]-4-morpholinobenzamide monohydrobromide Form A (=Form A) at the tested conditions.

[3] = Solubility in water by HPLC-analysis; conditions: as the free base by HPLC-analysis
[4] = Stability in water solutions (pH not adjusted), HPLC assay
Excerpt: as §1

[5] = Stability of solution in 0.1 M HCl, pH 1.1, HPLC assay
Excerpt: as §1

[6] = daylight RT, 14 days, % of start
[7] = daylight RT, 23 days, % of start

Solution in 0.1 mM HCl, pH 4.1, assay ([1]; 5° C., 8 days, % of start): 100% | Solution in 0.1 mM HCl, pH 4.1, assay ([1]; 5° C., 14 days, % of start): 99% | Solution in 0.1 mM HCl, pH 4.1, assay ([1]; 5° C., 23 days, % of start): 99% | Solution in 0.1 mM HCl, pH 4.1, assay ([1]; 5° C., Start): 0.0443 mg base/ml | Solution in 0.1 mM HCl, pH 4.1, assay ([1]; 5° C., Start, % of start): (100%) | Solution in 0.1 mM HCl, pH 4.1, assay ([1]; 60° C., 2 days, % of start): 96% | Solution in 0.1 mM HCl, pH 4.1, assay ([1]; 60° C., 8 days, % of start): 93% | Solution in 0.1 mM HCl, pH 4.1, assay ([1]; 60° C., 14 days, % of start): 67% | Solution in 0.1 mM HCl, pH 4.1, assay ([1]; 60° C., 23 days, % of start): 57% | Solution in 0.1 mM HCl, pH 4.1, assay ([1]; 60° C., Start): 0.0443 mg base/ml | Solution in 0.1 mM HCl, pH 4.1, assay ([1]; 60° C., Start, % of start): (100%) | Solution in 0.1 mM HCl, pH 4.1, assay ([1]; Dark RT, 8 days, % of start): 99% | Solution in 0.1 mM HCl, pH 4.1, assay ([1]; Dark RT, 14 days, % of start): 98% | Solution in 0.1 mM HCl, pH 4.1, assay ([1]; Dark RT, 23 days, % of start): 97% | Solution in 0.1 mM HCl, pH 4.1, assay ([1]; Dark RT, Start): 0.0443 mg base/ml | Solution in 0.1 mM HCl, pH 4.1, assay ([1]; Dark RT, Start, % of start): (100%) | Solution in 0.1 mM HCl, pH 4.1, assay [1, 6]: 98% | Solution in 0.1 mM HCl, pH 4.1, assay [1, 7]: 98% | Solution in 0.1 mM HCl, pH 4.1, assay ([1]; daylight RT, Start): 0.0443 mg base/ml | Solution in 0.1 mM HCl, pH 4.1, assay ([1]; daylight RT, Start, % of start): (100%) | stability in solution, comparison in words ([1]; pH 4.1, 60° C. (more pronounced than at pH 1.1)): less stable than Form A | stability in solution in words ([1]; pH 4.1, except at 60° C.): good | HPLC Purity (100% - related substances) ([2]; 90° C., 2 days): 99.9% | HPLC Purity (100% - related substances) ([2]; 90° C., 8 days): 99.9% | HPLC Purity (100% - related substances) ([2]; 90° C., 14 days): 99.9% | HPLC Purity (100% - related substances) ([2]; 90° C., 21 days): 99.9% | HPLC Purity (100% - related substances) ([2]; 90° C., 30 days): 99.9% | HPLC Purity (100% - related substances) ([2]; 90° C., Start): 100% | HPLC Purity (100% - related substances) ([2]; daylight, RT, 8 days): 99.9% | HPLC Purity (100% - related substances) ([2]; daylight, RT, 14 days): 99.9% | HPLC Purity (100% - related substances) ([2]; daylight, RT, 21 days): 99.9% | HPLC Purity (100% - related substances) ([2]; daylight, RT, 30 days): 99.9% | HPLC Purity (100% - related substances) ([2]; daylight, RT, Start): 100% | stability of bulk substance in words ([2]; in daylight and at 90° C.): very stable | solubility in water [3]: 34 µg/mL (≈ 75.8 µM) | Stability in water solutions, assay ([4]; 5° C., 8 days, % of start): 101% | Stability in water solutions, assay ([4]; 5° C., 14 days, % of start): 101% | Stability in water solutions, assay ([4]; 5° C., 23 days, % of start): 102% | Stability in water solutions, assay ([4]; 5° C., Start): 0.00698 mg base/ml | Stability in water solutions, assay ([4]; 5° C., Start, % of start): (100%) | Stability in water solutions, assay ([4]; 60° C., 2 days, % of start): 105% | Stability in water solutions, assay ([4]; 60° C., 8 days, % of start): 104% | Stability in water solutions, assay ([4]; 60° C., 14 days, % of start): 106% | Stability in water solutions, assay ([4]; 60° C., 23 days, % of start): 102% | Stability in water solutions, assay ([4]; 60° C., Start): 0.00698 mg base/ml | Stability in water solutions, assay ([4]; 60° C., Start, % of start): (100%) | Stability in water solutions, assay ([4]; Dark RT, 8 days, % of start): 94% | Stability in water solutions, assay ([4]; Dark RT, 14 days, % of start): 94% | Stability in water solutions, assay ([4]; Dark RT, 23 days, % of start): 95% | Stability in water solutions, assay ([4]; Dark RT, Start): 0.00698 mg base/ml | Stability in water solutions, assay ([4]; Dark RT, Start, % of start): (100%) | Stability in water solutions, assay ([4]; daylight RT, 8 days, % of start): 95% | Stability in water solutions, assay [4, 6]: 94% | Stability in water solutions, assay [4, 7]: 91% | Stability in water solutions, assay ([4]; daylight RT, Start): 0.00698 mg base/ml | Stability in water solutions, assay ([4]; daylight RT, Start, % of start): (100%) | stability in pure water solution, comparison in words ([4]; room temperature, pH not adjusted): less stable than Form A | Solution in 0.1 M HCl, pH 1.1, assay ([5]; 5° C., 8 days, % of start): 99% | Solution in 0.1 M HCl, pH 1.1, assay ([5]; 5° C., 14 days, % of start): 100% | Solution in 0.1 M HCl, pH 1.1, assay ([5]; 5° C., 23 days, % of start): 97% | Solution in 0.1 M HCl, pH 1.1, assay ([5]; 5° C., Start): 0.479 mg base/ml | Solution in 0.1 M HCl, pH 1.1, assay ([5]; 5° C., Start, % of start): (100%) | Solution in 0.1 M HCl, pH 1.1, assay ([5]; 60° C., 2 days, % of start): 98% | Solution in 0.1 M HCl, pH 1.1, assay ([5]; 60° C., 8 days, % of start): 96% | Solution in 0.1 M HCl, pH 1.1, assay ([5]; 60° C., 14 days, % of start): 91% | Solution in 0.1 M HCl, pH 1.1, assay ([5]; 60° C., 23 days, % of start): 83% | Solution in 0.1 M HCl, pH 1.1, assay ([5]; 60° C., Start): 0.479 mg base/ml | Solution in 0.1 M HCl, pH 1.1, assay ([5]; 60° C., Start, % of start): (100%) | Solution in 0.1 M HCl, pH 1.1, assay ([5]; Dark RT, 8 days, % of start): 100% | Solution in 0.1 M HCl, pH 1.1, assay ([5]; Dark RT, 14 days, % of start): 100% | Solution in 0.1 M HCl, pH 1.1, assay ([5]; Dark RT, 23 days, % of start): 98% | Solution in 0.1 M HCl, pH 1.1, assay ([5]; Dark RT, Start): 0.479 mg base/ml | Solution in 0.1 M HCl, pH 1.1, assay ([5]; Dark RT, Start, % of start): (100%) | Solution in 0.1 M HCl, pH 1.1, assay [5, 6]: 100% | Solution in 0.1 M HCl, pH 1.1, assay [5, 7]: 98% | Solution in 0.1 M HCl, pH 1.1, assay ([5]; daylight RT, Start): 0.479 mg base/ml | Solution in 0.1 M HCl, pH 1.1, assay ([5]; daylight RT, Start, % of start): (100%) | stability in solution, comparison in words ([5]; pH 1.1, 60° C.): less stable than Form A | stability in solution in words ([5]; pH 1.1, except at 60° C.): good
Compound: Cc1ccc(N2CCN(C)CC2)c2c1CCC(NC(=O)c1ccc(N3CCOCC3)cc1)C2 (stereo not shown) [Base, [5-Methyl-8-(4-methylpiperazin-1-yl)-1,2,3,4-tetrahydro-2-naphtyl]-4-morpholinobenzamide]
